Data reported in publication PMC8395690, “Entropy–Entropy Compensation between the Protein, Ligand, and Solvent Degrees of Freedom Fine-Tunes Affinity in Ligand Binding to Galectin-3C” (JACS Au, 2021).
Like-named read-outs stand apart in the source and are kept apart here.

Target: T1, galectin-3C (carbohydrate recognition domain of galectin-3) (Homo sapiens, UniProt P17931)
T1 construct: gene LGALS3; carbohydrate recognition domain of galectin-3 (residues 113–250)
Experiment: ITC; X-ray crystal structure; NMR titration
Type: binding

T1 sequence (P17931 113-250): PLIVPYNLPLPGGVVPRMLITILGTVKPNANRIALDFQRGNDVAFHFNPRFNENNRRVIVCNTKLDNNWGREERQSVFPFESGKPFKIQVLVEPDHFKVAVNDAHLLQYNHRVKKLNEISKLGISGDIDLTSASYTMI

| Compound | Kd (read-out: Kd ITC (10^-6 M) ^a) [µM] | Kd [µM] |
| --- | --- | --- |
| OC[C@H]1O[C@@H](S[C@@H]2O[C@H](CO)[C@@H](O)[C@H](O)[C@H]2O)[C@H](O)[C@@H](n2cc(-c3cccc(F)c3)nn2)[C@H]1O [M] | 2 |  |
| OC[C@H]1O[C@@H](S[C@@H]2O[C@H](CO)[C@@H](O)[C@H](O)[C@H]2O)[C@H](O)[C@@H](n2cc(-c3ccccc3F)nn2)[C@H]1O [O] |  | 7.21 |
| OC[C@H]1O[C@@H](S[C@@H]2O[C@H](CO)[C@@H](O)[C@H](O)[C@H]2O)[C@H](O)[C@@H](n2cc(-c3ccc(F)cc3)nn2)[C@H]1O [P] | 2.46 |  |
